The values that follow come from ChEMBL document CHEMBL4354839, “Heterobifunctional Molecules Induce Dephosphorylation of Kinases-A Proof of Concept Study” (J Med Chem, 2020).

The target in assay [1] is T1, AKT1/PPP1CA (Homo sapiens) (UniProt P62136+P31749). Description: Induction of PPI (unknown origin)-mediated pAKT (T308) (unknown origin) dephosphorylation incubated for 1 hr by Western blot analysis. It is filed as protein assay. (A western blot detects proteins with antibodies after separation by electrophoresis.)
T1 sequence (P31749 whole entry, looked up): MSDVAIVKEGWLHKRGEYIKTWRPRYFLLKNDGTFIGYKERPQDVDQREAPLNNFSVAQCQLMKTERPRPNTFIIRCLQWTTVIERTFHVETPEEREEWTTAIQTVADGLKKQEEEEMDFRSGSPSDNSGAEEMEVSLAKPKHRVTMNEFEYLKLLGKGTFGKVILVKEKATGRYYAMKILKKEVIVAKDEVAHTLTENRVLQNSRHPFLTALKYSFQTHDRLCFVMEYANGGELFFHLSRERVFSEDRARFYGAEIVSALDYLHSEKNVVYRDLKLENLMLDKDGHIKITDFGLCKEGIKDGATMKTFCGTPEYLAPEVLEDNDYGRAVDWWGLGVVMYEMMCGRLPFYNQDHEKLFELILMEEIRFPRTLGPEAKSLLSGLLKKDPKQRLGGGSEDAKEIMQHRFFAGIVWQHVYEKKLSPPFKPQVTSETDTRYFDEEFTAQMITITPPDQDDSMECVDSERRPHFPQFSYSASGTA
T1 sequence (P62136 whole entry, looked up): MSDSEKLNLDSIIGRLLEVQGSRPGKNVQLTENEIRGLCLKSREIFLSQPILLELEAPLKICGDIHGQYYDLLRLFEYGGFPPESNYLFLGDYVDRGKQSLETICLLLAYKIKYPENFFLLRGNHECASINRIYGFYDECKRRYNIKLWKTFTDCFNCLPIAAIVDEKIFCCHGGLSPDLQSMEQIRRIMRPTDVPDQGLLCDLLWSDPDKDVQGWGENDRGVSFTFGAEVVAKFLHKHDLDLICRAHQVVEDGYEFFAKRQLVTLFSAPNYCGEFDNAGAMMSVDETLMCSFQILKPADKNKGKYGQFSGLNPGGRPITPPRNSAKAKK
The target of assay [2] is T1, AKT1/PPP1CA (Homo sapiens). Description: Induction of PPI-mediated AKT dephosphorylation in human PC3 cells assessed as increase in AKT T308 dephosphorylation at 10 uM incubated for 8 hrs by Western blot analysis. It is filed as cell-based.
The target in assay [3] is T1, AKT1/PPP1CA (Homo sapiens). Description: Induction of PPI-mediated AKT dephosphorylation in human LnCaP cells assessed as increase in AKT T308 dephosphorylation at 10 uM incubated for 8 hrs by Western blot analysis. It is filed as cell-based.
The target of assay [4] is T1, AKT1/PPP1CA (Homo sapiens). Description: Induction of PPI-mediated AKT dephosphorylation in human PC3 cells assessed as increase in AKT S473 dephosphorylation at 10 uM incubated for 8 hrs by Western blot analysis. It is filed as cell-based.
The target of assay [5] is T1, AKT1/PPP1CA (Homo sapiens). Description: Induction of PPI-mediated AKT dephosphorylation in human MCF7/neo HER2 cells assessed as increase in AKT […] dephosphorylation at 10 uM incubated for 8 hrs by Western blot analysis. It is filed as cell-based.
For assay [6], the target named is T1, AKT1/PPP1CA (Homo sapiens). Description: Induction of PPI-mediated AKT dephosphorylation in human LnCaP cells assessed as reduction in S6 phosphorylation at 10 uM incubated for 8 hrs by Western blot analysis. It is filed as cell-based.
The target of assay [7] is T1, AKT1/PPP1CA (Homo sapiens). Description: Induction of PPI-mediated AKT dephosphorylation in human LnCaP cells assessed as increase in AKT T308 dephosphorylation at 10 uM incubated for 8 hrs in presence of PPI siRNA by Western blot analysis. Format: cell-based.
The target of assay [8] is T1, AKT1/PPP1CA (Homo sapiens). Description: Induction of PPI-mediated AKT dephosphorylation in human LnCaP cells assessed as increase in AKT S473 dephosphorylation at 10 uM incubated for 8 hrs by Western blot analysis. It is filed as cell-based.
The target of assay [9] is T1, AKT1/PPP1CA (Homo sapiens). Description: Induction of PPI-mediated AKT dephosphorylation in human LnCaP cells assessed as increase in AKT T308 dephosphorylation at 10 uM incubated for 6 and 8 hrs by Western blot analysis. It is filed as cell-based.
The target in assay [10] is T1, AKT1/PPP1CA (Homo sapiens). Description: Induction of PPI-mediated AKT dephosphorylation in human MCF7/neo HER2 cells assessed as increase in AKT T308dephosphorylation at 10 uM incubated for 8 hrs by Western blot analysis. It is filed as cell-based.
For assay [11], the target named is T1, AKT1/PPP1CA (Homo sapiens). Description: Induction of PPI-mediated AKT dephosphorylation in human MCF7/neo HER2 cells transfected with human Halo/FLAG-tagged PP1CA at 10 uM incubated for 8 hrs by Western blot analysis. Format: cell-based.
Assay [12] deals with T1, AKT1/PPP1CA (Homo sapiens). Description: Induction of PPI-mediated AKT dephosphorylation in human PC3 cells transfected with human Halo/FLAG-tagged PP1CA at 10 uM incubated for 8 hrs by Western blot analysis. It is filed as cell-based.
Assay [13] addresses T1, AKT1/PPP1CA (Homo sapiens). Description: Induction of PPI-mediated AKT dephosphorylation in human LnCaP cells transfected with human Halo/FLAG-tagged PP1CA at 10 uM incubated for 8 hrs by Western blot analysis. It is filed as cell-based.
The test system of another assay is HCC827. Description: Induction of dephosphorylation of EGFR Y1068 in human HCC827 cells at 10 uM incubated for 8 hrs by Western blot analysis. Format: functional, cell-based.
Assay [14] concerns the target EGFR/PPP1CA (Homo sapiens) (UniProt P00533+P62136). Description: Induction of PPI-mediated EGFR dephosphorylation in human HCC827 cells transfected with human Halo/FLAG-tagged PP1CA assessed as increase in EGFR Y1068 dephosphorylation at 10 uM incubated for 8 hrs by Western blot analysis. Format: cell-based.
The target of assay [15] is T1, AKT1/PPP1CA (Homo sapiens). Description: Induction of PPI-mediated AKT dephosphorylation in human LnCaP cells at 0.1 to 10 uM incubated for 2 hrs by Western blot analysis. Format: cell-based.
Assay [16] addresses T1, AKT1/PPP1CA (Homo sapiens). Description: Induction of PPI (unknown origin)-mediated pAKT (T308) (unknown origin) dephosphorylation at 0.25 to 10 uM incubated for 1 hr by Western blot analysis. Format: protein assay.
The target of assay [17] is T1, AKT1/PPP1CA (Homo sapiens). Description: Induction of PPI-mediated AKT dephosphorylation in human LnCaP cells assessed as increase in AKT dephosphorylation at 50 uM incubated for 8 hrs by Western blot analysis. It is filed as cell-based.

Activity calls are given as the source filed them. The rule behind the calls is not given here. Residues, ends and D or L forms follow the SMILES beside them. *: point of attachment. X1 = O=C(C*)NCCOCCOCC(=O)Nc1ccc2[nH]c(=O)n(C3CCN(Cc4ccc(-c5nc6cc[nH]c(=O)c6cc5-c5ccccc5)cc4)CC3)c2c1

EGFR/PPP1CA (Homo sapiens), sequence (P00533 whole entry, looked up): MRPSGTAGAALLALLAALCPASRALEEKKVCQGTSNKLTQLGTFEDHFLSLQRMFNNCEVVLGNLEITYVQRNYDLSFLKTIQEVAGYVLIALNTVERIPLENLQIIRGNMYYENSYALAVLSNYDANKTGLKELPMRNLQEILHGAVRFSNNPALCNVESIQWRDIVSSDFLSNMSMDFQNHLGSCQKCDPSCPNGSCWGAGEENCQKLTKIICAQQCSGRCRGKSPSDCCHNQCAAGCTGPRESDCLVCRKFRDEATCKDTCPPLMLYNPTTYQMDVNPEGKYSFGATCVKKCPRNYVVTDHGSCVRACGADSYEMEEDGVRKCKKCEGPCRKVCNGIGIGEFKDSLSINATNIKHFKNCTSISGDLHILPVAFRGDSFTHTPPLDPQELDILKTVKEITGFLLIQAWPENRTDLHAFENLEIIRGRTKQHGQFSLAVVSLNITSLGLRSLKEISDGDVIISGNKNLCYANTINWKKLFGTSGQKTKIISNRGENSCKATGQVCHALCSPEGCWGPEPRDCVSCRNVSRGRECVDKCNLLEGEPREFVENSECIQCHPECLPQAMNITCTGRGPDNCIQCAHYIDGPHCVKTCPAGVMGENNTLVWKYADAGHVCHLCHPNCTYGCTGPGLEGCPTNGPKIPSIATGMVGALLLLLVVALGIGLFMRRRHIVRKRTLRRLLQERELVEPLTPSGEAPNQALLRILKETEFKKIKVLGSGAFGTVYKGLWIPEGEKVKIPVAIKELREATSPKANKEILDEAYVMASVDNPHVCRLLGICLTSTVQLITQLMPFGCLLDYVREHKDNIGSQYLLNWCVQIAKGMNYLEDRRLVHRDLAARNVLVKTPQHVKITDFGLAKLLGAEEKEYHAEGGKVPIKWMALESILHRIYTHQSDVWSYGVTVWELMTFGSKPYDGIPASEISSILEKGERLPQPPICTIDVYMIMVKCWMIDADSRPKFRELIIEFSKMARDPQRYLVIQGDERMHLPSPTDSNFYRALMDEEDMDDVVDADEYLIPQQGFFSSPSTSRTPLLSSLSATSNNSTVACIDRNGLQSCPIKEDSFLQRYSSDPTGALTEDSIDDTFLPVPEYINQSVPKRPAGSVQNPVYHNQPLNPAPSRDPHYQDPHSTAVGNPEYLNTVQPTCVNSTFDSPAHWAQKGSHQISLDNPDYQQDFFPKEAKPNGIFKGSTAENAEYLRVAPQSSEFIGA
EGFR/PPP1CA (Homo sapiens), sequence (P62136 whole entry, looked up): as the sequence (P62136 whole entry, looked up) above

Consider `CC(=O)Nc1ccc2[nH]c(=O)n(C3CCN(Cc4ccc(-c5nc6cc[nH]c(=O)c6cc5-c5ccccc5)cc4)CC3)c2c1`, for which the Activity result in assay [1] was “Dose-dependent effect”.

As to `CC(=O)N[C@@H](CSCC(=O)NCCOCCOCC(=O)Nc1ccc2[nH]c(=O)n(C3CCN(Cc4ccc(-c5nc6cc[nH]c(=O)c6cc5-c5ccccc5)cc4)CC3)c2c1)C(=O)N[C@@H](CCCNC(=N)N)C(=O)N[C@H](C(=O)N[C@@H](CO)C(=O)N(C)[C@@H](Cc1ccccc1)C(=O)O)C(C)C`, the outcome in assay [2], in assay [3], in [4], in assay [5], in assay [6] and in assay [8] was Active. Besides, the result in assay [9] and in assay [10] was Active. Also, the outcome in assay [7] was inactive.

Turning to `O=C(CCC(=O)NCCOCCOCC(=O)Nc1ccc2[nH]c(=O)n(C3CCN(Cc4ccc(-c5nc6cc[nH]c(=O)c6cc5-c5ccccc5)cc4)CC3)c2c1)NCCOCCOCCCCCCCl`, the outcome in assay [11], in [12] and in assay [13] was Active.

As for `C=CC(=O)Nc1cc(Nc2nccc(-c3cn(C)c4ccccc34)n2)c(OC)cc1N(C)CCN1CCN(C(=O)COCCOCCOCCCCCCCl)CC1`, the outcome (with HCC827; in assay [14]) was Active.

Take `CC(=O)N[C@@H](CSCC(=O)NCCOCCOCC(=O)Nc1ccc2[nH]c(=O)n(C3CCN(Cc4ccc(-c5nc6cc[nH]c(=O)c6cc5-c5ccccc5)cc4)CC3)c2c1)C(=O)N[C@@H](CCCNC(=N)N)C(=O)N[C@H](C(=O)N[C@@H](CO)C(=O)N[C@@H](C)C(=O)O)C(C)C`: the outcome in assay [2], in assay [3], in [4], in assay [5], in [8] and in assay [9] was inactive. The outcome in [10] was inactive. Further, the result in assay [6] was Active.

In the case of `CC[C@H](C)[C@H](NC(=O)[C@@H](NC(=O)[C@H](CCC(=O)O)NC(=O)[C@H](C)NC(=O)[C@H](C)NC(=O)[C@H](CCC(=O)O)NC(=O)[C@H](C)NC(=O)[C@H](Cc1ccccc1)NC(=O)[C@@H](NC(=O)[C@@H](NC(=O)[C@H](CCCNC(=N)N)NC(=O)[C@H](C)NC(=O)[C@H](CC(N)=O)NC(=O)[C@H](CCCCN)NC(=O)[C@H](CCCNC(=N)N)NC(=O)[C@H](CCCCN)NC(=O)[C@H](CCCNC(=N)N)NC(=O)[C@H](CCCCN)NC(=O)[C@@H]1CCCN1C(=O)[C@H](CCCNC(=N)N)NC(=O)[C@H](CSCC(=O)NCCOCCOCC(=O)Nc1ccc2[nH]c(=O)n(C3CCN(Cc4ccc(-c5nc6cc[nH]c(=O)c6cc5-c5ccccc5)cc4)CC3)c2c1)NC(C)=O)C(C)C)[C@@H](C)O)[C@@H](C)CC)C(=O)O` (Ac-C(X1)RPKRKRKNARVTFAEAAEII-OH), the result in assay [15] was inactive. Moreover, the result in assay [16] was Active.

Turning to `CC(=O)N[C@@H](CSCC(=O)NCCOCCOCCOCC(=O)N(C)CCN(C[C@@H](C(=O)N1CCN(c2ncnc3c2[C@H](C)C[C@H]3O)CC1)c1ccc(Cl)cc1)C(C)C)C(=O)N[C@@H](CCCNC(=N)N)C(=O)N[C@H](C(=O)N[C@@H](CO)C(=O)N[C@@H](C)C(=O)O)C(C)C`, the result in assay [3] and in assay [8] was inactive. Moreover, the result in assay [17] was Active.
